Laboratory results published in patent US7521589B2, “Developmental animal model of temporal lobe epilepsy” (University of Prince Edward Island, priority 2003, dated 2009).

Legend:
Assay type in all cases: in vivo, rat
Sprague Dawley rats [1] = assay: NIS-L syndrome in open field arena; details: male rats; for animals displaying NIS-L in open field arena: tested PND 270
Procedure: To determine if the syndrome could be elicited by novel stimuli other than the MWM, all rats were tested in the Novel Water Maze (NWM) (Kant, G. J., Pharmacol. Biochem. Behav. [1993] 44:287-295) approximately 120 days after the MWM testing (i.e. PND 240).
The open field apparatus consisted of a 1.5 m diameter circular arena sectioned into 32 grids (16 central grids: 9 cm×9 cm; 16 peripheral grids). The open field was chosen as another environment that provided novelty while at the same time being less physiologically challenging than the previously described two water maze tasks. All rats were given a single 10 min trial in the open field arena and scored for the presence or absence of NIS-L by an experimenter blind to treatment. All testing procedures were conducted according to the guidelines of the Canadian Council on Animal Care.

Sprague Dawley rats [2] = assay: NIS-L syndrome during Novel Water Maze (NWM) testing; details: for animals exhibiting NIS-L syndrome in NWM: tested PND 240; for animals displaying NIS-L syndrome during NWM testing: separate cohort, tested at 15 months
Procedure: To determine if the syndrome could be elicited by novel stimuli other than the MWM, all rats were tested in the Novel Water Maze (NWM) (Kant, G. J., Pharmacol. Biochem. […]
The Novel Water Maze (NWM) (Kant, G. J., Pharmacol. Biochem. Behav. [1993] 44:287-295) was selected based on its provision of a novel environment within which to evaluate the novelty impact on the precipitation of NIS-L. Animals were tested for 6 consecutive swim trials of 60 sec duration and scored for the presence or absence of NIS-L behaviours, by an observer blind to treatment during the 120 sec inter-trial period.

Sprague Dawley rats [3] = assay: Daily assessment of pups until weaning for overt toxicity and weight gain; details: 5 or 20 μg/kg s.c. daily PND 8-PND 14
Procedure: Within 24 hr of birth, offspring of untimed-pregnant Sprague Dawley rats (Charles River Laboratories, St. Constant, PQ) were culled to 10 pups/litter (5 males and 5 females). From post-natal day (PND) 8-PND 14, pups were weighed and given a single daily injection (s.c.; 10 ml/kg) of either saline, or 5 or 20 μg/kg domoic acid (DOM). These doses are well below those normally required to induce toxicity in animals of this age (Doucette, T. A. et al., Neurotox. Teratol. [2003] 25:473-479, and Doucette, T. A., et al., Neurotox. Teratol. [2000] 22:863-869). Pups were assessed daily until weaning (on PND 22) for overt signs of toxicity, and all pre- and post-weaning testing was conducted with the experimenter blind to treatment. All procedures were conducted in accordance with the guidelines of the Canadian Council on Animal Care. […] Rats received no additional drug treatment after PND 14. On PND 120, animals were tested for spatial learning and memory in the Morris Water Maze (MWM) (8 trials/day over 6 consecutive days), using a standard reversal procedure (McNamara, R. K. and Skelton, R. W., Brain Res. Brain Res. Rev. [1993] 18:33-49). […]

Sprague Dawley rats [4] = assay: NIS-L syndrome during Morris Water Maze (MWM) testing
Procedure: Within 24 hr of birth, offspring of untimed-pregnant Sprague Dawley rats (Charles River Laboratories, St. Constant, PQ) were culled to 10 pups/litter (5 males and 5 females). […] These doses are well below those normally required to induce toxicity in animals of this age (Doucette, T. A. et al., Neurotox. Teratol. [2003] 25:473-479, and Doucette, T. A., et al., Neurotox. Teratol. [2000] 22:863-869). Pups were assessed daily until weaning (on PND 22) for overt signs of toxicity, and all pre- and post-weaning testing was conducted with the experimenter blind to treatment. All procedures were conducted in accordance with the guidelines of the Canadian Council on Animal Care. […] Rats received no additional drug treatment after PND 14. On PND 120, animals were tested for spatial learning and memory in the Morris Water Maze (MWM) (8 trials/day over 6 consecutive days), using a standard reversal procedure (McNamara, R. K. and Skelton, R. W., Brain Res. Brain Res. Rev. [1993] 18:33-49). While on the escape platform during the 60 second inter-trial interval, a significant number of DOM-treated rats presented with abnormal behaviour characterized by a combination of hunched body posture, facial clonus, mastication with tongue-protrusion, repetitive head extensions and bobbing, repetitive eye blinking/squinting, and vibrissae and ear twitching, often in combination with forelimb clonus. Presentation of all of the above behaviours was termed “novelty-induced seizure-like (NIS-L) syndrome”. Of note, the expression of this syndrome was not consequent to earlier drug-induced toxicity or seizures, nor was it spontaneous.
The Morris Water Maze (MWM) consisted of a circular tank measuring 1.5 m in diameter. Water temperature was maintained at approximately 21° C. and was made opaque by a layer of polypropylene pellets floated on the surface. Four points around the edge of the pool were arbitrarily designated as north (N), south (S), east (E), and west (W), allowing the apparatus to be divided into 4 corresponding quadrants (NE, SE, NW, SW). A clear plexiglass escape platform was submerged approximately 2 cm below the water surface and placed, initially, in the NE quadrant of the maze (alternate locations for the reversal task were implemented on Day 3 and Day 5). Extra-maze cues consisted of laboratory furniture and lights (held constant throughout the experiment). A video camera was mounted above the center of the pool and all performance was recorded for subsequent analyses. […] Escape latencies and inter-trial behaviour was recorded by observers blind to experimental treatment.

SMILES: C/C(=C/C=C/[C@@H](C)C(=O)O)[C@H]1CN[C@H](C(=O)O)[C@H]1CC(=O)O [DOM, domoic acid]
- animals displaying NIS-L in open field arena (Sprague Dawley rats [1]; 5 μg/kg PND 8-14): 50%
- animals displaying NIS-L in open field arena (Sprague Dawley rats [1]; 20 μg/kg PND 8-14): 66.7%
- animals exhibiting NIS-L syndrome in NWM (Sprague Dawley rats [2]; female rats, 5 μg/kg PND 8-14): 33.3%
- animals exhibiting NIS-L syndrome in NWM (Sprague Dawley rats [2]; female rats, 20 μg/kg PND 8-14): 100%
- animals displaying NIS-L syndrome during NWM testing (Sprague Dawley rats [2]; female rats, 20 μg/kg PND 8-14): 50%
- animals exhibiting NIS-L syndrome in NWM (Sprague Dawley rats [2]; male rats, 5 μg/kg PND 8-14): 33.3%
- animals exhibiting NIS-L syndrome in NWM (Sprague Dawley rats [2]; male rats, 20 μg/kg PND 8-14): 66.7%
- animals displaying NIS-L syndrome during NWM testing (Sprague Dawley rats [2]; male rats, 20 μg/kg PND 8-14): 50%
- weight gain between groups (Sprague Dawley rats [3]): no significant differences in weight gain
- signs of physical or behavioural toxicity prior to weaning (Sprague Dawley rats [3]; pups assessed until PND 22): None of the pups displayed any signs of physical or behavioural toxicity

SMILES: C=C(C)[C@H]1CN[C@H](C(=O)O)[C@H]1CC(=O)O [KA, kainic acid]
- rats with NIS-L syndrome (study parallel in design to Example 1) (Sprague Dawley rats [4]; female rats, 25 μg/kg neonatally): 16.7%
- rats with NIS-L syndrome (study parallel in design to Example 1) (Sprague Dawley rats [4]; female rats, 100 μg/kg neonatally): 57.1%
- rats with NIS-L syndrome (study parallel in design to Example 1) (Sprague Dawley rats [4]; male rats, 25 μg/kg neonatally): 62.5%
- rats with NIS-L syndrome (study parallel in design to Example 1) (Sprague Dawley rats [4]; male rats, 100 μg/kg neonatally): 62.5%
- rats exhibiting NIS-L syndrome in open field arena (Sprague Dawley rats [1]; 25 μg/kg neonatally): 62.5%
- rats exhibiting NIS-L syndrome in open field arena (Sprague Dawley rats [1]; 100 μg/kg neonatally): 33.3%
